From patent publication US20230158091A1, “C[…] CARRIER” (New York Medical College, priority 2020, published 2023)
Entries after “also recorded” stand apart in the source; their conditions may differ. Where two headings read alike, the source gives them in different places.

How the values were obtained:
[1] = system: rats with cortical contusion injury (TBI); assay: Cortical contusion injury (weight drop TBI), lesion histology; format: in vivo, rat
Procedure: (§1) Cortical Contusion Injury. Adult male and female Sprague-Dawley and Wistar rats (225-350 gm) received a moderately severe cortical impact injury under anesthesia with a controlled weight drop apparatus mounted on a stereotactic apparatus. Anesthesia was induced with ketamine/xylazine (60/6 mg/kg i.p.). A midline incision was performed to expose the skull. The dura was exposed with a 4.4-mm craniotomy centered at 1.4-mm posterior and 2.4-mm lateral to the bregma for placement of the 4-mm diameter foot-plate of the contusion apparatus. Contusion injury force of 600 g/cm was produced with a 20-g weight and dropping distance of 30-cm. The 20-g weight was released into a vertical guided tube that strikes the foot plate positioned at the end of the tube which is in contact with the dura. To avoid brain penetration, the foot-plate was prevented by a guide from moving greater than 2.5-mm into the dura.
(§2) Drug Administration. Rats in the TBI+CBD group received the gelfoam sponge infused with CBD (20.0 mg/ml) directly to the open contusion site overlying the dura within 2 min after the weight was removed from the apparatus. CBD was also administered systemically 10 min following surgery at 40 mg/kg followed by 20 mg/kg for all other injection days. TBI rats received gelfoam with coconut or olive oil directly onto the open contusion site overlying the dura following their respective surgical contusions. TBI rats also received vehicle, either coconut oil, olive oil, or PBS systemically at equal volumes that were administered to CBD treated animals according to weight (0.1-0.4 cc).
After direct delivery of the CBD internal gelatinized matrix, dental acrylic was used to close the wound. Animals became active 30-40 min following surgery.
FIG. 5 depicts schematic overview perspectives of an internal CBD absorbable medical carrier applied to the internal brain wound in the rat with systemic supplementation.

[2] = system: rats with cortical contusion injury (TBI); assay: Cortical contusion injury, hippocampal cell counts after H&E staining; format: in vivo, rat
Procedure: as §1, §2
In the contralateral CAL injured cells were intermingled among healthy appearing round cell bodies. […] In contrast to the TBI+vehicle group, the ipsilateral hippocampus was predominantly intact in all CBD treated animals but with disproportional levels of injured cells throughout the subfields. There were varied numbers of pyknotic, acidophilic, irregular shaped CA1 and CA3a (not illustrated) neurons.
Since 9 of 13 animals from the TBI+vehicle group had spared ipsilateral hippocampal tissue, counting of injured vs. healthy appearing cells of the CA1 subregion was carried out in a subset of animals from the TBI+vehicle group and compared with the CBD treated group to estimate whether injury on one side is related to the amount of injury on the other side. Measurements of the CA1 area and total volumetric measurements of the ipsilateral hemisphere were used for correlating ipsilateral injury with ipsilateral and contralateral hippocampal cellular injury.

[3] = system: rats with cortical contusion injury (TBI); assay: Beam balance test (vestibulomotor function) after TBI; format: in vivo, rat; conditions: compared to TBI untreated rats; day 14 through day 28
Procedure: as §1
Drug Administration. Rats in the TBI+CBD group received the gelfoam sponge infused with CBD (20.0 mg/ml) directly to the open contusion site overlying the dura within 2 min after the weight was removed from the apparatus. CBD was also administered systemically 10 min following surgery at 40 mg/kg followed by 20 mg/kg for all other injection days. […]
Vestibulomotor function was determined with the beam balance test in the TBI untreated and TBI+CBD treated rats. […]

[4] = system: rats with cortical contusion injury (TBI); assay: Spontaneous alternating T-maze after TBI; format: in vivo, rat
Procedure: as §1, §2
The spontaneous alternating T-maze was utilized at 3 and 28 days following TBI or TBI+CBD in order to assess spatial sense, memory and cognitive ability. Naïve untreated rats spontaneously alternated between left and right arms. There was a tendency of asymmetry to the left arm, but the number of entries was not great enough to exclude the possibility that the difference was due to random sampling variability (L: 6.3±1.7 vs. R: 4.7±0.52, N=10, two-tailed t=2.1, df=18, p=0.05). At 3 days following TBI to the left hemisphere, arm entry was impaired.

[5] = system: rats with cortical contusion injury (TBI); assay: Novel Object Recognition test after TBI; format: in vivo, rat
Procedure: as §1, §2
The Novel Object Recognition test was utilized to evaluate the short-term and working memory of the TBI+CBD group compared to control TBI levels at 27-29 days and naive untreated young rats. Following habituation, animals could explore an open field with two objects for 3 consecutive days by introducing two same objects on day 1 and adding a novel object on days 2 and 3 without visual cues.

[6] = system: rats with spinal cord contusion (SCI); assay: Spinal cord contusion (SCI), lesion and locomotor recovery; format: in vivo, rat
From the text: FIG. 6 depicts schematic overview perspectives of an internal CBD absorbable medical carrier applied to the internal wound in the rat with systemic supplementation with a spinal cord contusion (SCI).

[7] = cited from earlier work
[8] = comparison of both hemispheres, p=0.037

C=C(C)[C@@H]1CCC(C)=C[C@H]1c1c(O)cc(CCCCC)cc1O [CBD, cannabidiol]
area affected, normalized to TBI+vehicle treated group ([1]; Bregma AP 1.2 to −6.8, local sponge plus systemic CBD, p=0.0008): 34.04±6.38%
ipsilateral cortical/hippocampal lesion volume ([1]; approximated from 12 levels, 4 weeks after TBI, gelfoam sponge with CBD 20.0 mg/ml at contusion site plus systemic CBD 40 then 20 mg/kg, TBI+vehicle 69.85±7.2): 21.4±3.5 mm^3
lesion size after brain contusion (in words) ([1]; compared to contusion alone / TBI+vehicle): reduced ipsilateral lesion size; also recorded: decreased the size of the ipsilateral lesion
total anterior to posterior lesion measurement ([1]; local sponge plus systemic CBD, TBI control 6.586±0.2, p=0.008): 5.867±0.17 mm
lesion area at posterior levels (Bregma AP: −6.8 or further) ([1]; local sponge plus systemic CBD, comparison value 1.22±0.35, p=0.347): 0.92±0.17 mm^2
hippocampal injury at the cellular level (H&E, in words) ([2]; CBD local and peripheral delivery system): partially attenuated
contralateral hippocampus hilus irregular stained/injured cells ([2]; TBI+vehicle 30.4 4.17, p=0.002): 7.63±1.86
contralateral hippocampus CA1 irregular stained/injured cells ([2]; TBI+vehicle 53.3±10.9, p=0.045): 14.22±2.2
number of injured CA1 neurons, contralateral side (comparison of both hemispheres) [2, 8]: 14.21±2.29
number of injured CA1 neurons, ipsilateral side [2, 8]: 172.75±70
percent of CA1 contralateral injured cell counts relative to TBI+vehicle ([2]; relative to TBI+vehicle): 26.7±4.37%
ratio of ipsilateral injured CA1 neurons to healthy appearing CA1 pyramidal neurons ([2]; versus TBI+vehicle): unchanged
beam balance performance / vestibulomotor function (in words) [3]: improved balance and locomotor function within a few days; also recorded: significant improvement
time to choose right or left ([4]; 3 or 28 days post-injury, not significantly different from TBI+vehicle): 13 to 33 s
asymmetry of arm entry to the left ([4]; 3 days following TBI to the left hemisphere): highly significant
percent alternating in T-maze ([4]; 28 days after TBI, TBI 17.5±11.8%): 52.5±8.53%
spontaneous alternation (in words) ([4]; after 28 days): significant increase in percent alternating
overall mobility ([5]; 27-29 days post-TBI): greater than TBI rats and similar to naïve untreated controls
speed of travel ([5]; 27-29 days post-TBI, p=0.032): greater speed than TBI rats
distance travelled ([5]; averaged from days 2+3 of testing, 27-29 days post-TBI, p=0.03): greater distance than TBI+vehicle treated rats
number of episodes of interacting with old and novel objects ([5]; compared to TBI rats, not significantly different from naïve rats): much greater
time spent with the novel object ([5]; compared to TBI, not significantly different from naïve rats): much greater
locomotor recovery after spinal cord contusion (in words) ([6]; aged female rats, weeks 5 and 6 with continued CBD treatment): significant locomotor improvement
spinal cord lesion area / tissue preservation (Luxol Fast Blue, in words) ([6]; internal CBD carrier plus 1 week of daily CBD injections and 3 weeks of intermittent CBD treatment): reduced volumetric lesion area
absorbed in the body ([7]; ingestion): 5-20%
absorbed in the body ([7]; vaping or smoking): 30-60%
